Data from US20130231309A1, “TREATMENT OF INFLAMMATION AND ORGAN DYSFUNCTION” (THE REGENTS OF THE UNIVERSITY OF CALIFORNIA, priority 2005, published 2013).

Legend:
[1] = system: MMP-1 (collagenase-1) and MMP-9 (gelatinase B); test: In-vivo zymography of mesentery with fluorogenic substrate; design: species or system rat; details: EDTA 5 mM applied to mesentery
Protocol: Measurement of MMP-1,9 activity was obtained by superfusion of the mesentery with fluorogenic substrate (0.5 μmol/L; catalogue number D2293, Sigma-Aldrich Inc., St. Louis, Mo.) added to the suffusate. The substrate was cleaved by MMP-1 (collagenase-1) and MMP-9 (gelatinase B). The mesentery was loaded with substrate 10 minutes prior to image collection and continuously suffused with substrate throughout the experiment. The associated fluorescence was visualized by epi-illumination at 280 nm passing through a 340 nm emission filter on a fluorescent intravital microscope (Leica), and recorded digitally for measurement of fluorescent intensity. Light intensity of the emitted fluorescent light was recorded in digital units (1-256) after subtraction of background intensity in the absence of the tissue with standardized microscope settings. Reproducibility of these measurements as determined by repeated measurements on the same specimen was within 3%.

[2] = Blood cell counts (hematocrit, total leukocyte count); format: in vivo, rat; details: for Leukocyte Count: doxycycline in drinking water
Protocol: Selected WKY and SHR were treated with doxycycline (55 mg/liter in drinking water, average consumption ˜5.4 mg/kg/day, West-Ward Pharmaceutical Corp., Eatontown, N.J.) for a period of 24 weeks. It should be noted that lower and higher concentrations are also effective. A range of effective does of about 1.0-20.0 mg/kg/day, resulting from the dissolution of about 5.5-220 mg of an MMP inhibitor per liter, may also be used to produce an effective result. Narrower ranges of MMP solute may also be used, for example, 75-180 mg, and 100 mg-150 mg. Fresh leukocytes were fixed on a blood smear in whole blood (using heparin as anticoagulant, 10 U/ml) with formalin solution and […] (10%, neutral buffered, 1 hr). Total leukocyte count was determined with a hemocytometer, and hematocrit was centrifuged in microhematocrit tubes. Neutrophils were separated in a density gradient (Histopaque-1077, Sigma Aldrich, spun at 42 g for 5 min).

[3] = system: apoptotic cells in thymus, kidney, skeletal muscle; test: Apoptosis by TUNEL / propidium iodide labeling of frozen tissue sections; format: in vivo, rat; details: chronic doxycycline; for Fraction Of Apoptotic Cells, Thymus: tissue area of 10,000 μm^2
Protocol: A subsequent study was performed to consider the reduction of cell apoptosis after chronic MMP inhibition. In addition to the dramatic reduction of blood pressure, free radical production, membrane receptor cleavage and other pathophysiological parameters (described elsewhere) that point towards organ injury in the SHR, cell apoptosis was also considered after MMP inhibition. […] For this purpose, a novel digital technique was introduced to determine nuclear fragmentation on freshly-harvested frozen tissue sections labeled for DNA breaks with the TUNEL technique and with propidium iodide (PI) for the detection of cell nuclei (see FIG. 9). […] PI-positive nuclei (B) are used to identify the total number of cells in the fields. Their image is superimposed on the bright field image of TUNEL-positive nuclei (dark brown color in A) to determine digitally the light absorption due to the TUNEL label (shown in green in panels C) and the level of apoptosis (C).

[4] = system: plasma proteases (metallo-, serine, acid and sulfhydryl proteases); test: Plasma protease activity (fluorescent protease assay kit, Enzchek); format: in vivo, rat; details: after MMP inhibition for 12 weeks, age 30 weeks
Protocol: Fresh plasma samples were frozen (−60 C) until measurements were taken. On the day of the experiment, the samples were unfrozen and tested simultaneously for overall protease activity with fluorescent protease assay kit (Enzchek, Cat #E-6638, Molecular Probes). The substrate was cleaved by a range of proteases (metallo-, serine, acid and sulfhydryl proteases). Protease activity was determined from fluorescent intensity after peptide cleavage (in fluorescent units). In another experiment, and in order to explore the utility of chronic protease inhibition, a group of mature normotensive Wistar Kyoto rats (as well as a cohort of spontaneously hypertensive rats) were treated with a broad acting metafloproteases inhibitor (doxycycline, 55 mg/liter in drinking water, average consumption ˜5.4 mg/kg/day) over a period of 12 weeks until the age of 30 weeks.

[5] = Thymus weight normalized to body weight; format: in vivo, rat; details: chronic doxycycline, n = 5
Text: The reduced apoptosis in the thymus by MMP blockade is also confirmed by direct measurements of the organ weight (shown in Table 6).

[6] = WKY and SHR central hemodynamics (arterial blood pressure via femoral artery catheter, heart rate) after chronic doxycycline; format: in vivo, rat; details: for Mean Blood Pressure: doxycycline 55 mg/liter in drinking water (~5.4 mg/kg/day); for Diastolic Blood Pressure / Heart Rate / Systolic Blood Pressure: doxycycline in drinking water; for Mean Arterial Blood Pressure during Chronic MMP Inhibition: after MMP inhibition for 12 weeks, age 30 weeks
Protocol: Selected WKY and SHR were treated with doxycycline (55 mg/liter in drinking water, average consumption ˜5.4 mg/kg/day, West-Ward Pharmaceutical Corp., Eatontown, N.J.) for a period of 24 weeks. It should be noted that lower and higher concentrations are also effective. A range of effective does of about 1.0-20.0 mg/kg/day, resulting from the dissolution of about 5.5-220 mg of an MMP inhibitor per liter, may also be used to produce an effective result. Narrower ranges of MMP solute may also be used, for example, 75-180 mg, and 100 mg-150 mg. The ileocecal portion of the mesentery was prepared as described in Delano and Schmid-Schonbein, “The Glucocorticoid and Mineralocorticoid Receptor Distribution in a Microvascular Network of the Spontaneously Hypertensive Rat.” Briefly, arterial blood pressure was recorded via a femoral artery catheter. Individual sectors of mesentery were exposed via an abdominal midline incision while superfused with Krebs-Henseleit buffer (37° C., pH=7.4). The blood pressure of WKY and SHR was reduced by doxycycline treatment as shown below in Table 1, a trend that was detectable in terms of systolic, diastolic or mean blood pressure. […] In another experiment, and in order to explore the utility of chronic protease inhibition, a group of mature normotensive Wistar Kyoto rats (as well as a cohort of spontaneously hypertensive rats) were treated with a broad acting metafloproteases inhibitor (doxycycline, 55 mg/liter in drinking water, average consumption ˜5.4 mg/kg/day) over a period of 12 weeks until the age of 30 weeks.

O=C(O)CN(CCN(CC(=O)O)CC(=O)O)CC(=O)O [EDTA, ethylenediaminetetraacetic acid]
Fluorescent intensity generated by the fluorogenic substrate [1]: undetectable

C[C@H]1c2cccc(O)c2C(=O)C2=C(O)[C@]3(O)C(=O)C(C(N)=O)=C(O)[C@@H](N(C)C)[C@@H]3[C@@H](O)[C@@H]21 [doxycycline]
Leukocyte count after treatment as share of its usually high count ([2]; SHR group): less than 50% | Leukocyte Count ([2]; SHR): 2532 ± 574 | Leukocyte Count ([2]; WKY rats): 2737 ± 272*, ** | Fraction Of Apoptotic Cells, Kidney ([3]; SHR): 12.8 ± 5.2% | Fraction Of Apoptotic Cells, Skeletal muscle ([3]; SHR): 1.7 ± 2.4 % | Fraction Of Apoptotic Cells, Thymus ([3]; SHR): 13.8 ± 9.1 % | Fraction Of Apoptotic Cells, Kidney ([3]; WKY): 5.1 ± 3.5% | Fraction Of Apoptotic Cells, Skeletal muscle ([3]; WKY): 1.4 ± 1.3% | Fraction Of Apoptotic Cells, Thymus ([3]; WKY): 4.7 ± 3.0% | Plasma Protease Activity During Chronic MMP Inhibition ([4]; Spontaneously Hypertensive rat): 472 ± 24 FU | Plasma Protease Activity During Chronic MMP Inhibition ([4]; Wistar Kyoto rat): 413 ± 40 FU | Thymus Weight Normalized With Respect To Body Weight ([5]; SHR): 87.4 ± 3.3 mg/100 g body wt | Thymus Weight Normalized With Respect To Body Weight ([5]; WKY): 81.4 ± 7.4 mg/100 g body wt | Mean Blood Pressure ([6]; SHR, n = 7): 126.3 ± 13.5 mmHg | Diastolic Blood Pressure ([6]; SHR): 99.4 ± 17.3 mmHg | Heart Rate ([6]; SHR): 398 ± 60 beats/min | Systolic Blood Pressure ([6]; SHR): 161.9 ± 14.5 mmHg | Mean Arterial Blood Pressure during Chronic MMP Inhibition ([6]; Spontaneously Hypertensive rat): 126.3 ± 13.5 mmHg | Mean Blood Pressure ([6]; WKY rats, n = 6): 95.7 ± 8.5 mmHg | Diastolic Blood Pressure ([6]; WKY rats): 77.4 ± 6.8 mmHg | Heart Rate ([6]; WKY rats): 364 ± 30 beats/min | Systolic Blood Pressure ([6]; WKY rats): 125.3 ± 10.6 mmHg | Arterial pressure after treatment, relative to the Wistar rat ([6]; WKY rats, Wistar rat about 105 mmHg): < 105 mmHg | Mean Arterial Blood Pressure during Chronic MMP Inhibition ([6]; Wistar Kyoto rat): 95.7 ± 8.5 mmHg
